The supplement of paper PMC13380429

What was measured:
Settings in all cases: 72 h
[1] = tested on: Vero E6; test: drug sensitivity score (DSS) for viability; higher = more toxic; extreme values may be limits of the assay
[2] = tested on: Calu-3; test: as above
[3] = tested on: U2OS; test: as above
[4] = tested on: Caco-2; test: as above
[5] = tested on: HepG2; test: as above
[6] = tested on: Vero E6; test: cell viability relative to DMSO; higher = less toxic
[7] = tested on: Calu-3; test: as above
[8] = tested on: U2OS; test: as above
[9] = tested on: Caco-2; test: as above
[10] = tested on: HepG2; test: as above
[11] = tested on: Vero E6; test: relative viability EC50 (midpoint between 100% and the lowest measured viability); higher = less toxic
[12] = tested on: Calu-3; test: as above
[13] = tested on: U2OS; test: as above
[14] = tested on: Caco-2; test: as above
[15] = tested on: HepG2; test: as above

Compound | drug sensitivity score [1] | drug sensitivity score [2] | drug sensitivity score [3] | drug sensitivity score [4] | drug sensitivity score [5] | cell viability ([6]; 1 nM) [%] | cell viability ([6]; 10 nM) [%] | cell viability ([6]; 100 nM) [%] | cell viability ([6]; 1000 nM) [%] | cell viability ([6]; 10000 nM) [%] | cell viability ([7]; 1 nM) [%] | cell viability ([7]; 10 nM) [%] | cell viability ([7]; 100 nM) [%] | cell viability ([7]; 1000 nM) [%] | cell viability ([7]; 10000 nM) [%] | cell viability ([8]; 1 nM) [%] | cell viability ([8]; 10 nM) [%] | cell viability ([8]; 100 nM) [%] | cell viability ([8]; 1000 nM) [%] | cell viability ([8]; 10000 nM) [%] | cell viability ([9]; 1 nM) [%] | cell viability ([9]; 10 nM) [%] | cell viability ([9]; 100 nM) [%] | cell viability ([9]; 1000 nM) [%] | cell viability ([9]; 10000 nM) [%] | cell viability ([10]; 1 nM) [%] | cell viability ([10]; 10 nM) [%] | cell viability ([10]; 100 nM) [%] | cell viability ([10]; 1000 nM) [%] | cell viability ([10]; 10000 nM) [%] | relative viability EC50 [11] [µM] | relative viability EC50 [12] [µM] | relative viability EC50 [13] [µM] | relative viability EC50 [14] [µM] | relative viability EC50 [15] [µM]
CC(Cc1ccccc1)(NC(=O)CN)c1ccccc1 (stereo not given) [remacemide] | 0 | 0 | 0 | 0 | 0 | 99.7 | 101 | 102 | 96.2 | 99.3 | 102 | 93.6 | 92.5 | 98.6 | 90.8 | 98.6 | 94.7 | 99.6 | 93.6 | 94 | 99.6 | 92.8 | 100 | 91.5 | 102 | 99.4 | 96.1 | 100 | 94.3 | 104 | > 10 | > 10 | > 10 | > 10 | > 10
CC(NCCc1ccc(O)cc1)C(O)c1ccc(O)cc1 (stereo not given) [ritodrine] | 0 | 0 | 0 | 0 | 0 | 86.5 | 93.6 | 102 | 98.9 | 109 | 102 | 105 | 93.7 | 98.3 | 101 | 96.9 | 102 | 97 | 101 | 105 | 91.4 | 97.7 | 95.5 | 99.7 | 105 | 94.5 | 102 | 91.4 | 95.8 | 103 | > 10 | > 10 | > 10 | > 10 | > 10
CCN(C)C(=O)Oc1cccc([C@H](C)N(C)C)c1 [rivastigmine] | 0 | 0 | 0 | 0 | 0 | 101 | 106 | 103 | 106 | 97.6 | 93.5 | 95 | 101 | 98.3 | 94.4 | 95.8 | 99.2 | 99.9 | 98.7 | 103 | 109 | 95.5 | 104 | 96.7 | 95.8 | 113 | 102 | 98 | 106 | 98.2 | > 10 | > 10 | > 10 | > 10 | > 10
CNCC(=O)O [sarcosine] | 0 | 0 | 0 | 0 | 0 | 93.4 | 97.8 | 90.4 | 103 | 112 | 92.9 | 98.5 | 96.7 | 89.6 | 97.7 | 96.1 | 99.2 | 99.1 | 96 | 107 | 93.3 | 93.4 | 95.5 | 102 | 110 | 112 | 110 | 88.4 | 106 | 107 | > 10 | > 10 | > 10 | > 10 | > 10
NC(=O)C(c1ccccc1)(c1ccc(F)cc1)c1ccc(F)cc1 [senicapoc] | 0 | 0 | 0 | 0 | 0 | 96.9 | 99.1 | 94.5 | 97.3 | 92.9 | 99 | 96.7 | 99 | 102 | 92.3 | 102 | 96.9 | 104 | 98.8 | 98.8 | 101 | 105 | 102 | 92.4 | 99.4 | 93.4 | 98.8 | 96.4 | 95.5 | 97.7 | > 10 | > 10 | > 10 | > 10 | > 10
N[C@@H](CC(=O)N1CCn2c(nnc2C(F)(F)F)C1)Cc1cc(F)c(F)cc1F [sitagliptin] | 0 | 0 | 0 | 0.2 | 0 | 97.7 | 106 | 90.7 | 107 | 102 | 107 | 100 | 99.5 | 106 | 97.7 | 97.5 | 94.6 | 97.4 | 94.8 | 97.7 | 108 | 99.5 | 97.1 | 102 | 84.1 | 89.2 | 98.9 | 91.1 | 97.5 | 88.6 | > 10 | > 10 | > 10 | > 10 | > 10
NCCCNCCCCNCCCN [spermine] | 0 | 0 | 0 | 0 | 0 | 95.3 | 94.1 | 95.8 | 98.6 | 106 | 99.2 | 101 | 81.9 | 99.2 | 104 | 96.5 | 96.3 | 96.1 | 96.8 | 103 | 90.2 | 124 | 93.5 | 98 | 96.7 | 93.6 | 98.4 | 104 | 93.1 | 94.3 | > 10 | > 10 | > 10 | > 10 | > 10
